Assay results from patent US9439884B2, “Methods for the treatment of immune disorders” (Beth Israel Deaconess Medical Center, Inc., priority 2011, dated 2016).
“Also recorded” adds a separate entry of the source. Where two headings read alike, the source gives them in different places. Values belong to the compound of their own block, whether it stands above or below them. *1 amine or outer side, *2 acyl side, *3 side chain or, on linkers, in order; H or OH if unused. Where a SMILES comes first, the peptide text is derived from it. Where no end group is shown, it is not given here. [ ]: non-standard residue; d: D form. 15N‑Ala = Ala with single 15N label, C[C@H]([15NH][*:1])C(=O)[*:2]; pS = N[C@@H](COP(=O)(O)O)C(=O)O

What was measured:
[1] = biological target: T1, Pin1 WW domain (Homo sapiens, UniProt Q13526); experiment: 2D NMR (15N-1H HSQC) titration of 15N-WW domain with IRAK1 phosphopeptides; assay type: binding; conditions: chemical shift change of 15N-WW domain as a function of peptide concentration; read-out: dissociation constants (KD)
T1 construct: monitor the changes in the ^15N-WW domain induced by titration with phosphopeptide ligands
T1 sequence (Q13526 5-39 limits assumed): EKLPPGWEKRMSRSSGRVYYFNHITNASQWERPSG
Text: To measure the Pin1 interaction with each of the implicated pSer-Pro motifs in IRAK1, we employed two-dimensional (2D) NMR spectroscopy to monitor the changes in the ^15N-WW domain induced by titration with phosphopeptide ligands. In a 2d ^15N-^1H HSQC spectrum of a protein (FIG. 3a), each backbone NH group is represented by a peak, whose position reflects the chemical environment of that NH bond. Ligand binding to the protein is detected by changes in peak positions (fast exchange) or by the appearance of new peaks (slow exchange) as ligand is added. WW binding at each distinct IRAK1 site was measured using phosphopeptides containing residues 126-136 (pSer131-P132), 140-150 ([…]), and 157-180 (pSer173-P174) of IRAK1.

[2] = biological target: T2, Pin1 (Homo sapiens, UniProt Q13526); experiment: Fluorescence polarization (FP)-based HTS / displacement of labeled Pin1 peptidic inhibitor pTide; assay type: binding
T2 sequence (Q13526 whole entry): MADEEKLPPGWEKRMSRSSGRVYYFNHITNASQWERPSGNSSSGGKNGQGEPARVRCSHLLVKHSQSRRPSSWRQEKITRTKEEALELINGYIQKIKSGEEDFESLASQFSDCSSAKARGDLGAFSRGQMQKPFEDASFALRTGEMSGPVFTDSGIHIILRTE
Text: (§1) In this regard, recently, we identified specific and potent Pin1 catalytic peptidic inhibitors and used them to establish a robust and sensitive FP-based HTS to screen approved drugs and NIH Chemical and Genomics Center, which led us to successfully identify all trans retinoic acid (ATRA) and four other Pin1 inhibitors active in cells for further optimization including Cpd4 (FIG. 27A).
(§2) We developed a fluorescence polarization (FP)-based HTS using fluorescence labeled Pin1 peptidic inhibitor, pTide to identify Pin1 inhibitors. Our screening of selected compounds at the Harvard ICCB-L libraries identified the strongest hit to be cis-RA according to the Z-score (FIG. 31A). To confirm that RAs target Pin1, we examined cis-RA and trans-RA in vitro and in cells. […] Cellular Pin1 activity was also reflected by cyclin D1 levels (FIG. 31D), a known Pin1 biomarker.

[3] = biological target: T2, Pin1; experiment: Pin1 PPIase (catalytic activity) assay in vitro; assay type: biochemical
Text: as §1, §2

[4] = test system: cancer cells; experiment: Pin1-dependent cancer cell growth; assay type: cell-based
Text: as §1

[5] = test system: SKBR3; experiment: Cell growth inhibition, SKBR3; assay type: cell-based; conditions: breast cancer cell line SKBR3
[6] = test system: T47D; experiment: Cell growth inhibition, T47D; assay type: cell-based; conditions: breast cancer cell line T47D
[7] = test system: MCF-10A; experiment: Cell growth, normal breast cells MCF-10A; assay type: cell-based
[8] = biological target: T2, Pin1; experiment: Pin1 protein/mRNA levels and turnover in cells; assay type: cell-based
Text: as §2

[9] = test system: Pin1 KO MEFs; experiment: Anti-proliferative effect in Pin1 KO MEFs with or without Pin1 re-expression; assay type: cell-based, mouse
[10] = test system: pDCs; experiment: Cytokine production of pDCs upon TLR9 activation by CpG; assay type: cell-based
[11] = biological target: T3, Pin1 (Mus musculus, UniProt Q9QUR7); experiment: Pin1 western and PPIase assay in IL-33-stimulated BM-derived eosinophils; assay type: cell-based; conditions: 100 ng/ml IL-33
T3 construct: endogenous in cells; host or cells: bone-marrow-derived eosinophils
T3 sequence (Q9QUR7 whole entry): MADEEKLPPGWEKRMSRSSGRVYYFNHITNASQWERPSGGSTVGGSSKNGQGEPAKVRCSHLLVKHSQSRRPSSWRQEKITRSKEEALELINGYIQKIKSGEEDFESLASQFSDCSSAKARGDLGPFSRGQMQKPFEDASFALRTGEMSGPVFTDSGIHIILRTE

[12] = test system: BM-derived eosinophils; experiment: IL-6 ELISA in IL-33-stimulated BM-derived eosinophils; assay type: cell-based; conditions: 100 ng/ml IL-33
[13] = test system: NZBWF1 mice; experiment: Proteinuria in lupus-prone NZBWF1 mice (Bio-Rad assay); assay type: in vivo; conditions: female NZBWF1 mice, controlled release pellets, 3.5 months, vs placebo
Procedure: Female lupus-prone NZBWF1 mice were treated with placebo or ATRA for 3.5 months and proteinuria was evaluated by Bio-Rad assay.
Our objective here was to determine if the Pin1 inhibitor we have discovered, ATRA, offer a treatment benefit in preclinical models of SLE. To this end we have been treating NZBWF1 female mice for 3.5 months with controlled release ATRA pellets, which have been well established pharmacologically and which offer the advantage ease of delivery, reduced stress to subjects and controlled drug release. Each cohort has been pre-bleed and urine collected before the start of drug treatment. Subsequently, we have collected serum and urine samples monthly for evaluation of disease markers such as autoantibodies and proteinuria.

[14] = biological target: T2, Pin1; experiment: Co-crystal structure of Pin1 and ATRA; assay type: binding
[15] = test system: lupus prone mouse models; conditions: some lupus prone mouse models; cited from earlier work
[16] = biological target: T4, TLR9 (Homo sapiens, UniProt Q9NR96); conditions: cited from earlier work
T4 sequence (Q9NR96 26-1032): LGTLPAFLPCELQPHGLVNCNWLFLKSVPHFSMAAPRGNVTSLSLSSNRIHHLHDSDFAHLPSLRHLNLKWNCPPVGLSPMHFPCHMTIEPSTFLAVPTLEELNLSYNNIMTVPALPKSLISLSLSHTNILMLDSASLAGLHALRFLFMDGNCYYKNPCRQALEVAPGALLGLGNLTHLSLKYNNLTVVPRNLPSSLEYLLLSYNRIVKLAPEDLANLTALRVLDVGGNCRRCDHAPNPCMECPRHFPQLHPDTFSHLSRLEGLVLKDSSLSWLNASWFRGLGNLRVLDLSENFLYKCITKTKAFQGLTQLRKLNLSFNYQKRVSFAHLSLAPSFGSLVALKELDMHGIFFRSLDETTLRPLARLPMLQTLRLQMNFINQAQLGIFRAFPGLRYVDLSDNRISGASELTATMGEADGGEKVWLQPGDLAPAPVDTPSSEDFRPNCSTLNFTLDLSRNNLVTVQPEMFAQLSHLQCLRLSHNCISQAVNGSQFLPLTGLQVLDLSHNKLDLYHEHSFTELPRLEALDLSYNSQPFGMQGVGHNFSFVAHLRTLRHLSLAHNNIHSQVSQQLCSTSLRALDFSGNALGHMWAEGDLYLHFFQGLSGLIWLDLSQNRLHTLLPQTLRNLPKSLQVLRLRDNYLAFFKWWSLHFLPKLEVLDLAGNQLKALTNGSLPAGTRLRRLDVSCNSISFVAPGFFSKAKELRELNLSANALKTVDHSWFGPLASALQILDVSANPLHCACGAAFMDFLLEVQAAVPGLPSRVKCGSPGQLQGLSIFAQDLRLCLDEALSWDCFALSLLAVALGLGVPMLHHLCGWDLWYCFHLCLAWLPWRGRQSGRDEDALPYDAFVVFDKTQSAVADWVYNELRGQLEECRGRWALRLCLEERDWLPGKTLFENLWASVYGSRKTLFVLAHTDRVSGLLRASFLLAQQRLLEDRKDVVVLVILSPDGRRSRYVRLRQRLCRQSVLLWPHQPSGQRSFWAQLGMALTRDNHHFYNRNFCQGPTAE

[17] = test system: PP2A; experiment: Pin1 dephosphorylation in human PBMCs after TLR9 activation by CpG; assay type: cell-based; conditions: human PBMCs pretreated with 5 nM
Text: We have shown that in SLE T cells the message, protein and activity of PP2Ac is increased and is involved in their abnormal function. First, PP2Ac dephosphorylates pCREB and accounts for the decreased IL-2 production. Second, PP2Ac dephosphorylates the transcription factor Elf1 and decreases its ability to bind to the promoters of CD3zeta and FcRgamma genes causing suppression of the first and derepression of the second with significant repercussions in the composition of the CD3 complex in SLE T cells. Third, PP2Ac dephosphorylates (and activates) SP1, which binds to the promoter of IL-17A and promotes its expression. […] Moreover, Pin1 also was dephosphorylated in T cells isolated from CD2:PP2A transgenic mice that overexpresses PP2Ac in T cells developed in Dr. Tsokos laboratory, but not wild-type littermates (FIG. 25E). Therefore, it is reasonable to predict that increased PP2Ac activity may contribute to the dephosphorylation and activation of Pin1 in SLE. Alternatively, because calcineurin (CaN) can also dephosphorylate Pin1 in vitro (FIG. 25) and CaN inhibitors may have a place in the treatment of SLE, we will consider it as a viable alternative to PP2Ac.

[18] = biological target: T2, Pin1; experiment: 15N-1H Nzz exchange spectroscopy of Pin1-catalyzed cis-trans isomerization; assay type: biochemical; conditions: pS173P peptide bond; peptide 1 mM, Pin1 17 μM
Text: Because uncatalyzed cis-trans isomerization is a generally slow process (time constant minutes), the equilibrium between cis and trans isomers yields two distinct peaks for residues (such as A175) whose chemical environment differs in the two isomer states. […] The dependence of peak intensities on Nzz mixing time yields the cis-trans exchange rate. […] Based on peak intensities in the absence of Pin1, the pS173P trans:cis ratio is 85:15.

Compound: CC(C)C[C@H](NC(=O)[C@H](CCCCN)NC(=O)[C@H](CCCNC(=N)N)NC(=O)[C@@H]1CCCN1C(=O)[C@H](COP(=O)(O)O)NC(=O)[C@H](Cc1c[nH]c2ccccc12)NC(=O)[C@H](C)NC(=O)[C@H](CCC(=O)O)NC(=O)[C@H](C)NC(=O)[C@@H](N)CCC(=O)O)C(=O)N1CCC[C@H]1C(=O)O [126-136 (pSer131-P132)] (H-EAEAW[pS]PRKLP-OH)
- Kd [1]: 220 ± 15 µM

Compound: CC1=C(/C=C/C(C)=C/C=C/C(C)=C/C(=O)O)C(C)(C)CCC1 [ATRA, all trans retinoic acid]
- Pin1 inhibition in FP assays ([2]; compared with cis-RA): more potent Pin1 inhibition than cis-RA
- competition with Pin1 catalytic peptidic inhibitors for binding to the Pin1 active site ([2]; preliminary results): effectively competed
- inhibition of Pin1 catalytic (PPIase) activity [3]: inhibited its catalytic activity
- inhibition of Pin1 catalytic (PPIase) activity ([3]; listed as trans-RA): Dose-dependant Pin1 inhibition; also recorded: inhibiting Pin1 PPIase assays
- inhibition of Pin1-dependent cancer cell growth [4]: inhibited Pin1-dependent cancer cell growth
- inhibition of cell growth [5]: inhibiting cell growth
- inhibition of cell growth [6]: inhibiting cell growth
- effect on normal breast cells [7]: without any effects
- Pin1 levels ([8]; breast cancer cell lines SKBR3 and T47D): reducing Pin1 levels
- degradation of Pin1 and its substrate D1 ([8]; cancer cells): induced the degradation
- sensitivity to anti-proliferative effects ([9]; Pin1 KO MEFs): much more resistant
- drug sensitivity ([9]; Pin1 KO MEFs with stable re-expression of Pin1 (not its inactive mutant)): fully restored
- production of IL6 [10]: suppressed
- production of IL12 [10]: suppressed
- production of TNF-α [10]: suppressed
- Pin1 activation (PPIase assay) [11]: inhibited Pin1 activation
- Pin1 degradation (Pin1 western) [11]: induced Pin1 degradation
- IL-6 secretion [12]: inhibited
- proteinuria [13]: significantly reduced
- binding site in co-crystal structure [14]: bound to Pin1 active site
- SLE-related phenotypes [15]: suppress SLE-related phenotypes

Compound: CCN(CCO)CCCC(C)Nc1ccnc2cc(Cl)ccc12 (stereo not drawn) [hydroxychloroquine]
- stimulation of TLR9 [16]: inhibits stimulation of TLR9

Compound: C=C1[C@@H](O)[C@@H]2O[C@]3(CC[C@H](/C=C/[C@@H](C)[C@@H]4CC(C)=C[C@@]5(O[C@H](C[C@@](C)(O)C(=O)O)CC[C@H]5O)O4)O3)CC[C@H]2O[C@@H]1[C@@H](O)C[C@H](C)[C@H]1O[C@@]2(CCCCO2)CC[C@H]1C [okadaic acid]
- Pin1 dephosphorylation after CpG [17]: reversed

More lines, now with the values ahead:

- hit ranking according to the Z-score ([2]; screening of Harvard ICCB-L libraries): strongest hit
- inhibition of Pin1 catalytic (PPIase) activity [3]: Dose-dependant Pin1 inhibition
Compound: CC1=C(/C=C/C(C)=C/C=C/C(C)=C\C(=O)O)C(C)(C)CCC1 [cis-RA, 13-cis retinoic acid]

- Pin1-catalyzed isomerization rate kex [18]: 27 s⁻¹
Compound: ^15N-Ala175-UD157-180: IRAK1 UD157-180 phosphopeptide with a single 15N label at Ala175 (ELGLVPSPASLWPPPP[pS]P[15N‑Ala]PSSTK; not fully specified; also: other phosphorylation sites not given here; UniProt P51617 157-180, looked up, fragment)
